The text below walks through data of US11813306B2, “Cyclic tetramer compounds as proprotein convertase subtilisin/kexin type 9 (PCSK9) inhibitors for the treatment of metabolic disorders” (NOVARTIS AG, priority 2018, dated 2023).

For this experiment, the target named is human PCSK9 (Homo sapiens, UniProt Q8NBP7). The experiment can be described thus: PCSK9 ligand binding assay (TR-FRET): interference with binding of human PCSK9 to human LDLR. The note with it: for IC50: Human PCSK9 Alexa Fluor 647 / Human LDLR extracellular domain-Europium Kryptate; for Max % inhibition: efficacy (Amax), 100% = 1 uM unlabeled human PCSK9, 0% = DMSO. The method, boiled down: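 Read-out was TR-FRET ratio (665 nm over 615 nm, 330 nm excitation) between Alexa Fluor 647-human PCSK9 (16 nM added) and Europium Kryptate-human LDLR ectodomain (4 nM added). Compound and PCSK9 were mixed 30 min before LDLR, then incubated 2 h. Inhibition was normalised to DMSO and unlabelled-PCSK9 controls, giving IC50 and Amax.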
human PCSK9, sequence (Q8NBP7 153-692): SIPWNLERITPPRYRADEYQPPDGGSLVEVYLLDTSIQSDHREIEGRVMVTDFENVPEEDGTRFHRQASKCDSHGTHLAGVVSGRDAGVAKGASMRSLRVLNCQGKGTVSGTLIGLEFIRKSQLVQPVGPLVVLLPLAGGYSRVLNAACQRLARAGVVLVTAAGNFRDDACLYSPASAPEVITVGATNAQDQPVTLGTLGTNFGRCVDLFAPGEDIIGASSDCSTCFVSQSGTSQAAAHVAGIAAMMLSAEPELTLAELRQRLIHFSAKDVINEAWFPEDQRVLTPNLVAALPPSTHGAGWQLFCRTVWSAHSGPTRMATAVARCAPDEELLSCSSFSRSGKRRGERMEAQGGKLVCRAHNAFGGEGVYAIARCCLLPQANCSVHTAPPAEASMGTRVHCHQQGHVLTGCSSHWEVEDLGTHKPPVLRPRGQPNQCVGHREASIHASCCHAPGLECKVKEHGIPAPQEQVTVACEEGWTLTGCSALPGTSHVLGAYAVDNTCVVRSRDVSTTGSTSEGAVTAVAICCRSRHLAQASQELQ
human PCSK9, sequence (Q8NBP7 31-152 partner limits assumed): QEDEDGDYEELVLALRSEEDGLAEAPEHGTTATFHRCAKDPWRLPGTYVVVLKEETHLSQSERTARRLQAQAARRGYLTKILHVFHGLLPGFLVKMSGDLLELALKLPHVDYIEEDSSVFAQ
For orientation: TR-FRET usually uses a lanthanide donor and a delayed reading to cut background.

Structures are written as SMILES.

Take `COC[C@@H]1NC(=O)[C@H](C)N(Cc2ccc(Cl)cc2Oc2ccc(-c3cnc(CN4CC[C@H](O)C4)n3C)cc2)C(=O)C[C@@H](Cc2ccccc2)C(=O)N2CCC[C@@](Cc3ccc(Cl)cc3)(C2)NC1=O.Cl` [Compound 59, (3R, 7S, 10S, 13R)-3-benzyl-6-(4-chloro-2-(4-(2-(((S)-3-hydroxypyrrolidin-1-yl)methyl)-1-methyl-1H-imidazol-5-yl)phenoxy)benzyl)-13-(4-chlorobenzyl)-10-(methoxymethyl)-7-methyl-1,6,9,12-tetraazabicyclo+11.3.1+heptadecane-2,5,8,11-tetraone]: the IC50 (usually the concentration needed to halve the response being measured) amounted to 0.572 nM and the Max % inhibition is listed as 103.6%.

Regarding `COC[C@@H]1NC(=O)[C@H](C)N(Cc2ccc(Cl)cc2Oc2ccc(-c3cnc(CN4CCC(O)CC4)n3C)cc2)C(=O)C[C@@H](Cc2ccccc2)C(=O)N2CCC[C@@](Cc3ccc(Cl)cc3)(C2)NC1=O.Cl` [Compound 61], the IC50 came to 0.623 nM and the Max % inhibition was determined as 109.3%.

As to `C[C@H]1C(=O)N[C@@H](CO)C(=O)N[C@@]2(Cc3ccc(Cl)cc3)CCCN(C2)C(=O)[C@H](Cc2ccc(C(F)(F)F)cc2)CC(=O)N1Cc1ccc(Cl)cc1Oc1ccc(-c2cnc(CN(C)C)n2C)cc1` [Compound 62, (3R, 7S, 10S, 13R)-6-(4-chloro-2-(4-(2-((dimethylamino)methyl)-1-methyl-1H-imidazol-5-yl)phenoxy)benzyl)-13-(4-chlorobenzyl)-10-(hydroxymethyl)-7-methyl-3-(4-(trifluoromethyl)benzyl)-1,6,9,12-tetraazabicyclo[11.3.1]heptadecane-2,5,8,11-tetraone], the IC50 came out at 0.963 nM and the Max % inhibition was found to be 110.7%.

For the compound `CC[C@@H]1CC(=O)N(Cc2c(F)cc(Cl)cc2Oc2ccc(-c3cnc(CN(C)C)n3C)cc2)[C@@H](C)C(=O)N[C@@H](COC)C(=O)N[C@@]2(Cc3ccc(Cl)cc3)CCCN(C2)C1=O` [Compound 63], the half-maximal inhibitory concentration (IC50) amounted to 0.851 nM and the Max % inhibition was determined as 117.9%.

`C[C@H](O)[C@@H]1NC(=O)[C@H](C)N(Cc2ccc(Cl)cc2Oc2ccc(-c3cnc(CN(C)C)n3C)cc2)C(=O)C[C@@H](CC(F)(F)F)C(=O)N2CCC[C@@](Cc3ccc(Cl)cc3)(C2)NC1=O` [Compound 64, (3S,7S,10S,13R)-6-(4-chloro-2-(4-(2-((dimethylamino)methyl)-1-methyl-1H-imidazol-5-yl)phenoxy)benzyl)-13-(4-chlorobenzyl)-10-((S)-1-hydroxyethyl)-7-methyl-3-(2,2,2-trifluoroethyl)-1,6,9,12-tetraazabicyclo[11.3.1]heptadecane-2,5,8,11-tetraone]: the IC50 was 1.16 nM and the Max % inhibition was 99.7%.

On to `COC[C@@H]1NC(=O)[C@H](C)N(Cc2ccc(Cl)cc2Oc2ccc(-c3cnc(CN(C)C)n3C)cc2)C(=O)C[C@@H](Cc2ccccc2)C(=O)N2CCC[C@@](Cc3ccc(Cl)cc3)(C2)N(C)C1=O` [Compound 65, (3R, 7S, 10S, 13R)-3-benzyl-6-(4-chloro-2-(4-(2-((dimethylamino)methyl)-1-methyl-1H-imidazol-5-yl)phenoxy)benzyl)-13-(4-chlorobenzyl)-10-(methoxymethyl)-7,12-dimethyl-1,6,9,12-tetraazabicyclo[11.3.]heptadecane-2,5,8,11-tetraone], for which the 50% inhibitory concentration (IC50) was determined as 0.621 nM and the Max % inhibition is listed as 109.2%.

Take `C[C@H]1C(=O)N[C@@H](CO)C(=O)N[C@@]2(Cc3ccc(Cl)cc3)CCCN(C2)C(=O)[C@H](Cc2cccc[n+]2[O-])CC(=O)N1Cc1ccc(Cl)cc1Oc1ccc(-c2cnc(CN(C)C)n2C)cc1` [Compound 66, 2-(((3R,7S,10S,13R)-6-(4-Chloro-2-(4-(2-((dimethylamino)methyl)-1-methyl-1H-imidazol-5-yl)phenoxy)benzyl)-13-(4-chlorobenzyl)-10-(hydroxymethyl)-7-methyl-2,5,8,11-tetraoxo-1,6,9,12-tetraazabicyclo[11.3.1]heptadecan-3-yl)methyl)pyridine 1-oxide]: the IC50 came out at 0.673 nM and the Max % inhibition is recorded as 104.2%.

As for `CC(C)[C@@H]1NC(=O)N(Cc2ccc(Cl)cc2Oc2ccc(-c3cnc(CN(C)C)n3C)cc2)[C@@H](C)C(=O)N[C@@H](CO)C(=O)N[C@@]2(Cc3ccc(Cl)cc3)CCCN(C2)C1=O.Cl` [Compound 67, (3S, 7S, 10S, 13R)-6-(4-chloro-2-(4-(2-((dimethylamino)methyl)-1-methyl-1H-imidazol-5-yl)phenoxy)benzyl)-13-(4-chlorobenzyl)-10-(hydroxymethyl)-3-isopropyl-7-methyl-1,4,6,9,12-pentaazabicyclo[11.3.1]heptadecane-2,5,8,11-tetraone], the IC50 was 0.334 nM and the Max % inhibition turned out to be 104.2%.

Consider `C[C@H]1C(=O)N[C@@H](CO)C(=O)N[C@@]2(Cc3ccc(Cl)cc3)CCCN(C2)C(=O)[C@H]([C@H]2CCc3ccccc32)CC(=O)N1Cc1ccc(Cl)cc1Oc1ccc(-c2cnc(CN3CCCC3)n2C)cc1.Cl` [Compound 68, (3S,7S,10S,13R)-6-(4-chloro-2-(4-(1-methyl-2-(pyrrolidin-1-ylmethyl)-1H-imidazol-5-yl)phenoxy)benzyl)-13-(4-chlorobenzyl)-3-((R)-2,3-dihydro-1H-inden-1-yl)-10-(hydroxymethyl)-7-methyl-1,6,9,12-tetraazabicyclo[11.3.1]heptadecane-2,5,8,11-tetraone hydrochloride], for which the half-maximal inhibitory concentration (IC50) turned out to be 1.62 nM and the Max % inhibition was found to be 95.0%.

Turning to `C[C@H]1C(=O)N[C@@H](CO)C(=O)N[C@@]2(Cc3ccc(Cl)cc3)CCCN(C2)C(=O)[C@H]([C@@H]2CCc3ccccc32)CC(=O)N1Cc1ccc(Cl)cc1Oc1ccc(-c2cnc(C3CN(C)C3)n2C)cc1` [Compound 69, (3S, 7S, 10S, 13R)-6-(4-chloro-2-(4-(1-methyl-2-(1-methylazetidin-3-yl)-1H-imidazol-5-yl)phenoxy)benzyl)-13-(4-chlorobenzyl)-3-((S)-2,3-dihydro-1H-inden-1-yl)-10-(hydroxymethyl)-7-methyl-1,6,9,12-tetraazabicyclo[11.3.1]heptadecane-2,5,8,11-tetraone], the concentration for half-maximal inhibition (IC50) amounted to 0.781 nM and the Max % inhibition turned out to be 70.1%.

With `C[C@H](c1ncc(-c2ccc(Oc3cc(Cl)ccc3CN3C(=O)C[C@@H]([C@@H]4CCc5ccccc54)C(=O)N4CCC[C@@](Cc5ccc(Cl)cc5)(C4)NC(=O)[C@H](CO)NC(=O)[C@@H]3C)cc2)n1C)N(C)C.Cl` [Compound 70, (3S, 7S,10S, 13R)-6-(4-chloro-2-(4-(2-((R)-1-(dimethylamino)ethyl)-1-methyl-1H-imidazol-5-yl)phenoxy)benzyl)-13-(4-chlorobenzyl)-3-((S)-2,3-dihydro-1H-inden-1-yl)-10-(hydroxymethyl)-7-methyl-1,6,9,12-tetraazabicyclo[11.3.1]heptadecane-2,5,8,11-tetraone], the IC50 came out at 1.48 nM and the Max % inhibition came out at 110.7%.

As to `C[C@H]1C(=O)N[C@@H](CO)C(=O)N(C)[C@@]2(Cc3ccc(Cl)cc3)CCCN(C2)C(=O)[C@H](Cc2ccccc2)CC(=O)N1Cc1ccc(Cl)cc1Oc1ccc(-c2cnc(CN(C)C)n2C)nc1` [Compound 71], the IC50 came out at 0.754 nM and the Max % inhibition is given as 102.6%.
